Counter-ions that a name gives are not always drawn. Like-named read-outs stand apart in the source and are kept apart here. One block for each compound: values may come before it. Residues, ends and D or L forms follow the SMILES beside them.
Tests used:
[1] = system: bovine gamma globulin (BGG)
[2] = system: bovine gamma globulin (BGG); test: Normalized viscosity of 280 mg/mL BGG in 20 mM histidine with excipients A/B (Example 20); format: physicochemical; conditions: no B
Text: Excipient compounds for this Example are listed below in Table 11.

[3] = Viscosity of PEG (Mw ~1,000,000) solution in Tris buffer with excipient (Examples 12-13); format: physicochemical
[4] = system: bovine gamma globulin (BGG); test: Viscosity of 280 mg/mL BGG formulations in 50 mM histidine HCl pH 6 with excipient, cone and plate viscometer (Examples 1, 2, 4-6); format: physicochemical
[5] = Caffeine solubility testing with co-solutes at ambient temperature (Examples 32-33); conditions: for Observation of caffeine dissolution: caffeine 80 mg/mL
Protocol: Prepared solutions were used either neat or diluted with deionized water.
A small magnetic stir bar was added to the vial, and the solution was allowed to mix vigorously on a stir plate for about 10 minutes.

Compound: CCCCCCn1cc[n+](C)c1.[Cl-] [1-hexyl-3-methylimidazolium chloride]
Viscosity Reduction ([1]; excipient 65 mg/mL): 11%

Normalized Viscosity ([2]; excipient A 10 mg/mL): 0.83
Compound: COC(=O)[C@H](Cc1ccccc1)NC(=O)[C@@H](N)CC(=O)O [Aspartame] (H-Asp-Phe-OMe)

Compound: CC1=NCCN1.Cl [2-methyl-2-imidazoline HCl]
Normalized Viscosity ([1]; excipient 60 mg/mL): 0.43
Viscosity Reduction ([1]; excipient 60 mg/mL): 57%

Compound: N=C(N)NCCCCN.O=S(=O)(O)O [Agmatine sulfate]
Viscosity Reduction ([1]; excipient 55 mg/mL): 23%

Viscosity ([3]; excipient 20 mg/mL): 83.9 cP
Viscosity Reduction ([3]; excipient 20 mg/mL): 18%
Viscosity ([3]; excipient 40 mg/mL): 71.7 cP
Viscosity Reduction ([3]; excipient 40 mg/mL): 30%
Compound: O=P(O)(O)OCC(O)CO (stereo not shown) [glycerol phosphate]

Viscosity ([4]; excipient 50 mg/mL): 52 cP
Viscosity Reduction ([4]; excipient 50 mg/mL): 34%
Viscosity ([4]; excipient 100 mg/mL): 72 cP
Viscosity Reduction ([4]; excipient 100 mg/mL): 9%
Compound: Arg-His [Dipeptide RH (Arg-His)]

Compound: CN(C)C1CCCCC1 [DMCHA-HCl, dimethylcyclohexylamine]
Viscosity Reduction ([1]; excipient 120 mg/mL): 56%
Viscosity [4]: 35 cP
Viscosity Reduction [4]: 56%
Viscosity ([4]; excipient 28 mg/mL): 50 cP
Viscosity Reduction ([4]; excipient 28 mg/mL): 37%
Viscosity ([4]; excipient 41 mg/mL): 43 cP
Viscosity Reduction ([4]; excipient 41 mg/mL): 46%
Viscosity ([4]; excipient 50 mg/mL): 45 cP
Viscosity Reduction ([4]; excipient 50 mg/mL): 43%
Viscosity ([4]; excipient 82 mg/mL): 36 cP
Viscosity Reduction ([4]; excipient 82 mg/mL): 54%
Viscosity ([4]; excipient 164 mg/mL): 40 cP
Viscosity Reduction ([4]; excipient 164 mg/mL): 49%

Compound: O=C(O)CCCC[C@@H]1SC[C@@H]2NC(=O)N[C@@H]21 [Biotin]
Viscosity Reduction ([1]; excipient 20 mg/mL): 31%

Viscosity ([4]; excipient 26 mg/mL): 58 cP
Viscosity Reduction ([4]; excipient 26 mg/mL): 27%
Viscosity ([4]; excipient 58 mg/mL): 50 cP
Viscosity Reduction ([4]; excipient 58 mg/mL): 37%
Viscosity ([4]; excipient 76 mg/mL): 49 cP
Viscosity Reduction ([4]; excipient 76 mg/mL): 38%
Viscosity ([4]; excipient 103 mg/mL): 46 cP
Viscosity Reduction ([4]; excipient 103 mg/mL): 42%
Viscosity ([4]; excipient 129 mg/mL): 47 cP
Viscosity Reduction ([4]; excipient 129 mg/mL): 41%
Viscosity ([4]; excipient 159 mg/mL): 42 cP
Viscosity Reduction ([4]; excipient 159 mg/mL): 47%
Viscosity ([4]; excipient 163 mg/mL): 42 cP
Viscosity Reduction ([4]; excipient 163 mg/mL): 47%
Compound: N=C(N)NCCS(=O)(=O)O [Product of Example 8, Guanyl taurine]

Viscosity Reduction ([1]; excipient 50 mg/mL): 40%
Compound: C1COCCN1.Cl [Morpholine HCl]

Viscosity ([4]; excipient 40 mg/mL): 54 cP
Viscosity Reduction ([4]; excipient 40 mg/mL): 32%
Viscosity ([4]; excipient 87 mg/mL): 57 cP
Viscosity Reduction ([4]; excipient 87 mg/mL): 28%
Compound: CN(C)CCCN [DMAPA-HCl, dimethylaminopropylamine]

Viscosity Reduction ([1]; excipient 50 mg/mL): 21%
Compound: Cn1cncc1C[C@H](NC(=O)CCN)C(=O)O.O=[N+]([O-])O [L-Anserine nitrate]

Viscosity ([3]; excipient 12 mg/mL): 80.5 cP
Viscosity Reduction ([3]; excipient 12 mg/mL): 23%
Viscosity ([3]; excipient 24 mg/mL): 71.91 cP
Viscosity Reduction ([3]; excipient 24 mg/mL): 31%
Compound: CC(O)(P(=O)(O)O)P(=O)(O)O [etidronic acid/K salt, etidronic acid]

Viscosity ([4]; excipient 50 mg/mL): 55 cP
Viscosity Reduction ([4]; excipient 50 mg/mL): 30%
Viscosity ([4]; excipient 100 mg/mL): 68 cP
Viscosity Reduction ([4]; excipient 100 mg/mL): 14%
Compound: Tyr-Glu [Dipeptide YE (Tyr-Glu)]

Compound: O=C(O)[C@H](O)[C@@H](O)[C@H](O)[C@H](O)CO [D-Gluconic acid/K salt, D-Gluconic acid]
Viscosity ([3]; excipient 20 mg/mL): 88.4 cP
Viscosity Reduction ([3]; excipient 20 mg/mL): 16%
Viscosity ([3]; excipient 40 mg/mL): 80.32 cP
Viscosity Reduction ([3]; excipient 40 mg/mL): 23%

Viscosity Reduction ([1]; excipient 100 mg/mL): 57%
Compound: c1c[nH]cn1 [Imidazole HCl]

Observation of caffeine dissolution ([5]; co-solute 80 mg/mL): DND
Normalized Viscosity ([2]; excipient A 40 mg/mL): 0.61
Normalized Viscosity ([2]; excipient A 80 mg/mL): 0.44
Compound: CC1=CC(=O)NS(=O)(=O)O1 [Acesulfame K, acesulfame potassium]

Viscosity Reduction ([1]; excipient 100 mg/mL): 52%
Compound: CCCCn1cc[n+](C)c1.[Cl-] [1-butyl-3-methylimidazolium chloride]

Compound: Cl.NCCc1ccc(O)cc1 [Tyramine HCl]
Viscosity Reduction ([1]; excipient 70 mg/mL): 59%
Observation of caffeine dissolution ([5]; co-solute 30 mg/mL): DND
Dissolution of caffeine enabled relative to reported solubility limit ([5]; co-solute in water, ambient temperature (about 23 C)): at least about four times

Compound: O=C([O-])c1ccccc1.[Na+] [Sodium benzoate]
Viscosity ([4]; excipient 31 mg/mL): 61 cP
Viscosity Reduction ([4]; excipient 31 mg/mL): 23%
Viscosity ([4]; excipient 56 mg/mL): 62 cP
Viscosity Reduction ([4]; excipient 56 mg/mL): 22%

Viscosity ([4]; excipient 50 mg/mL): 53 cP
Viscosity Reduction ([4]; excipient 50 mg/mL): 33%
Viscosity ([4]; excipient 100 mg/mL): 64 cP
Viscosity Reduction ([4]; excipient 100 mg/mL): 19%
Compound: Arg-Lys [Dipeptide RK (Arg-Lys)]

Compound: dimethylcyclohexylammonium hydroxybenzoate [DMCHA-hydroxybenzoate]
Viscosity ([4]; excipient 67 mg/mL): 46 cP
Viscosity Reduction ([4]; excipient 67 mg/mL): 42%
Viscosity ([4]; excipient 92 mg/mL): 42 cP
Viscosity Reduction ([4]; excipient 92 mg/mL): 47%

Compound: O=C([O-])c1cccnc1.[Na+] [Nicotinic acid, sodium salt]
Viscosity Reduction ([1]; excipient 100 mg/mL): 46%

Viscosity Reduction ([1]; excipient 60 mg/mL): 34%
Compound: CCCCn1cc[n+](C)c1.[I-] [1-butyl-3-methylimidazolium iodide]

Viscosity ([4]; excipient 44 mg/mL): 49 cP
Viscosity Reduction ([4]; excipient 44 mg/mL): 38%
Viscosity ([4]; excipient 96 mg/mL): 42 cP
Viscosity Reduction ([4]; excipient 96 mg/mL): 47%
Compound: Nc1ccc(S(=O)(=O)[O-])cc1.[Na+] [Sodium sulfanilate]

— patent US11357857B2, “Excipient compounds for protein processing” (COMERA LIFE SCIENCES, INC., priority 2014, dated 2022)
